Results: patent US11078519B2, “Bioluminescent assays utilising secreted luciferases” (GENE STREAM PTY LTD., priority 2006, dated 2021)

Tests used:
[1] = test system: non-secreted Metridia luciferase; test: Kinetic luminescence assay of non-secreted Metridia luciferase in HeLa cell lysate; type: biochemical; conditions: up to 120 minutes
Text: (§1) HeLa cells were transiently transfected with expression plasmids encoding either Gaussia or Metridia luciferases in either their native secreted form or a modified non-secreted form. Secreted Metridia luciferase was obtained from Clontech and non-secreted Metridia luciferase was created in an analogous way to non-secreted Gaussia luciferase. The coding region was obtained by PCR using primers that delete the first 16 amino acids after ATG (the secretion signal) and the stop codon. The PCR product was ligated into a pRR23.1 plasmid (GeneStream, AU) to create a non-secreted but destabilized Metridia luciferase.
One day after transfection conditioned medium was removed for the secreted luciferases and the non-secreted luciferases were lysed as described in Example 1. Aliquots (20 ul) of conditioned medium or lysate were assayed for luciferase activity in kinetic assays following manual injection of assay buffer comprising the indicated concentrations of DTT in 25 mM Tris pH 7.75; 1 mM EDTA; 2 mM Ascorbic acid and 26 uM coelenterazine.
Experiments were performed as described in Example 5 for the non-secreted Gaussia and Metridia luciferases, except that the reducing agents used were: dithioerythritol (DTE) (FIGS. 6A and 6D); sodium sulfite (FIG. 6B); cysteamine (FIGS. 6C and 6E); TCEP (FIG. 6F); and β-mercaptoethanol (FIG. 6G).

[2] = test system: non-secreted Gaussia luciferase; test: Kinetic luminescence assay of non-secreted Gaussia luciferase in HeLa cell lysate with reducing agent in assay buffer; type: biochemical; conditions: for decay in luminescent signal over time compared with absence of reducing agent: all concentrations tested: DTT 4-50 mM, β-mercaptoethanol 10-100 mM, TCEP 500 uM or 5 mM, FIGS. 1A, 1B
Experimental: HeLa cells stably expressing non-secreted and destabilized Gaussia luciferase were plated onto 96-well plates and incubated overnight. The non-secreted luciferase is a modified Gaussia luciferase in which the 14 amino acid N-terminal signal peptide has been deleted. The destabilised luciferase is an enzyme containing a destabilising element such that it has a shortened half-life and is expressed at lower steady-state level than in the absence of the destabilising element.
Following the overnight incubation, medium was removed and the cells lysed in 20 ul lysis buffer comprising 25 mM Tris pH 8.1, 150 mM NaBr, 1 mM EDTA, 63.4 uM sodium oxalate, 0.1% NP40 substitute, 5% glycerol (GSv3). Luciferase activity was measured in a kinetic assay following injection of 60 ul of an assay buffer comprising 25 mM Tris pH 8.1; 1 mM EDTA, 2 mM Ascorbate and 26 uM Cz (STD), or the same assay buffer but also containing a reducing agent. Various concentrations of three reducing agents were used: DTT (4 mM, 10 mM, 20 mM or 50 mM); β-mercaptoethanol (10 mM, 20 mM, 50 mM, or 100 mM); and TCEP (500 uM or 5 mM). […] The effect was strongest at higher concentrations of a given reducing agent. […] The inventors have determined that this higher concentration produced beneficial effects in terms of bioluminescence generated by Gaussia luciferase. […]

[3] = target: T1, intracellular Renilla luciferase (Renilla reniformis, UniProt P27652); test: Kinetic luminescence assay of Renilla luciferase in HeLa cell lysate; type: biochemical; conditions: 50 mM DTT in assay buffer; FIG. 4
T1 construct: expressed in transfected cells; host or cells: HeLa, transient; cell lysate
T1 sequence (P27652 1-311): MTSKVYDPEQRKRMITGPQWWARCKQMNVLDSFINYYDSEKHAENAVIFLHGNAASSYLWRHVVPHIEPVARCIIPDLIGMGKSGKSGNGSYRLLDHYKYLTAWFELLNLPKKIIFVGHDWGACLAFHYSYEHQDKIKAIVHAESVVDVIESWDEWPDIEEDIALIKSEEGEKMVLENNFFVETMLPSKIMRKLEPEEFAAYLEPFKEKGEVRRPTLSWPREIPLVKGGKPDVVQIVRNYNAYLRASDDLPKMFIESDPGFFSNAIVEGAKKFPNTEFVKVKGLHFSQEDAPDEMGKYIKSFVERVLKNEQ
Experimental: Similar experiment to those described in Example 1 were performed, with the exception that the HeLa cells transiently expressed the intracellular Renilla luciferase. A kinetic assay was performed after injection of assay buffer (with 50 mM DTT or no DTT) into wells containing 20 ul of lysate.

[4] = Background luminescent signal in lysate of non-transfected HeLa cells; conditions: DTT in assay buffer
Experimental: (§2) Non-transfected HeLa cells and HeLa cells expressing non-secreted Gaussia luciferase were subjected to luciferase assays as follows. Cells were plated in equal aliquots onto a 96-well plate and incubated overnight. Medium was removed and cells lysed in 20 ul of the lysis buffer described in Example 1. Forty minutes later, light emission was measured using a Wallac Victor 3 luminometer (Perkin Elmer) immediately before and after injection of 60 ul of assay buffer comprised 25 mM Tris pH 8.1, 23.6 uM coelenterazine, 1 mM EDTA, 2 mM ascorbate plus the indicated concentration of DTT (see FIG. 8).

[5] = test system: wild-type secreted Gaussia luciferase; test: Kinetic luminescence assay of secreted Gaussia luciferase in conditioned medium; type: biochemical
Experimental: Similar experiments were performed as described in Example 1 with the exception that the effect of DTT on the time course of luminescence was also investigated for the wild-type secreted Gaussia luciferase. This was achieved by transiently transfecting HeLa cells with a reporter plasmid encoding the wild-type Gaussia luciferase protein and harvesting the conditioned medium 24 hrs later. The assay buffer (with either 50 mM DTT or no DTT) was injected into wells containing 20 ul of the conditioned medium. Results were expressed as the % signal remaining compared to time zero (see FIG. 3).
as §1
One day after transfection conditioned medium was removed for the secreted luciferases and the non-secreted luciferases were lysed as described in Example 1. […]

[6] = test system: secreted Gaussia luciferase; test: Secreted Gaussia luciferase signal in cell lysate, lysis buffer with DTT; type: biochemical; conditions: 50 mM DTT in lysis buffer; 2 hour time-point, without doxycycline; FIG. 11B
Experimental: To test this hypothesis, HeLa cells were co-transfected with plasmids TRE-Rn and CMV-Ga (wild type, secreted), either alone or in combination. The latter provides constitutive expression of secreted Gaussia luciferase, whilst the former provides a doxycycline-repressible expression of intracellular Renilla luciferase. The cells were incubated overnight, the medium was removed and the cells rinsed once before addition of a fresh aliquot of medium either with or without 2 ug/ml doxycyline. At 2, 6 and 24 hrs later, samples of conditioned medium were taken. The cells were rinsed in fresh medium before being lysed using lysis buffer comprising 25 mM Tris pH 8.1, 150 mM NaBr, 1 mM EDTA, 63.4 uM sodium oxalate, 0.1% NP40 substitute, 5% glycerol; either with or without 50 mM DTT. 20 ul aliquots of conditioned medium and cell lysate were then assayed for luciferase activity following addition of 60 ul of assay buffer comprising 25 mM Tris pH 7.75; 1 mM EDTA; 2 mM Ascorbic acid and 26 uM coelenterazine.

[7] = test system: non-secreted Gaussia luciferase; test: Flash intensity of non-secreted Gaussia luciferase in HeLa cell lysate; type: biochemical; conditions: 50 mM DTT in assay buffer; FIG. 12C
Experimental: as §2

[8] = test system: non-secreted and destabilized Gaussia luciferase; test: Dual-luciferase assay (Gaussia then firefly) in HeLa cell lysate; type: biochemical; conditions: Gaussia assay buffer with 50 mM DTT; FIG. 8
Experimental: HeLa cells stably expressing both a non-secreted and destabilized Gaussia luciferase and a destabilized firefly luciferase were plated onto 96-well plates and incubated overnight. Medium was removed and the cells lysed in 20 ul of the lysis buffer described in Example 1. Light emission was measured for 1 sec in a luminometer at the following times: immediately before addition of assay buffer (LB=background signal in absence of substrate); immediately after addition of Gaussia assay buffer (Ga) comprising 25 mM Tris pH 8.1; 1 mM EDTA, 2 mM Ascorbate, 23.6 uM Cz and 50 mM DTT; 15 mins after addition of Ga assay buffer (15 mins); and subsequently at 1 sec after addition of 60 ul of a firefly assay buffer (FF) comprising 25 mM Tris pH 7.35, 6 mM MgSO4, 36 mM DTT, 0.11 mM EDTA, 0.58 mM ATP, 0.3 mM CoA, 0.52 mM Luciferin, 1 mg/ml BSA. The results shown in FIG. 8 illustrate a strong Gaussia luciferase bioluminescent signal that can be measured in a flash reaction but which decays to background levels within approximately 15 mins without intervention or the need to add quenching reagents. Subsequent addition of a firefly reagent allows measurement of the firefly signal, thus completing a dual-luciferase assay.

[9] = test system: secreted Metridia luciferase; test: Kinetic luminescence assay of secreted Metridia luciferase in conditioned medium; type: biochemical; conditions: varying DTT in assay buffer; up to 120 minutes; FIG. 5D
Text: as §1, with “Metridia luciferase. One day after transfection conditioned medium was removed for the secreted luciferases and the non-secreted luciferases were lysed as described in Example 1. Aliquots (20 ul) of conditioned medium or lysate were assayed for luciferase activity in kinetic assays following manual injection of assay buffer comprising the indicated concentrations of DTT in 25 mM Tris pH 7.75; 1 mM EDTA; 2 mM Ascorbic acid and 26 uM coelenterazine.” for “Metridia luciferase.”

[10] = test system: destabilised, non-secreted Gaussia luciferase; conditions: fresh assay buffer with glutathione; FIG. 14
Experimental: HeLa cells expressing a destabilised, non-secreted Gaussia luciferase were plated in equal aliquots onto 96-well plates and incubated overnight. The same lysis buffer was used for all samples. […] The assay buffers were then stored at room temperature for 4 hrs and used again to measure replicate samples.

[11] = test system: destabilised, non-secreted Gaussia luciferase; conditions: 5 mM glutathione (3:2 reduced:oxidized); fresh buffer; FIG. 15
Experimental: HeLa cells expressing a destabilised, non-secreted Gaussia luciferase were plated in equal aliquots onto 96-well plates and incubated overnight. The same lysis buffer was used for all samples. Luciferase activity was measured using fresh assay buffer containing the total amounts of glutathione (3:2 ratio of reduced:oxidized) indicated in FIG. 15. The assay buffers were then stored at room temperature for 7 hrs or at 4° C. for 22 hrs and used again to measure replicate samples.

[12] = varying concentrations of reducing agent, FIGS. 6A-6C
[13] = varying concentrations of reducing agent, up to 50 minutes, FIGS. 6D-6G

O[C@H](CS)[C@@H](O)CS [DTE, dithioerythritol]
light emission over time [1, 12]: rapid decline in light emission | light emission over time [2, 13]: rapid decline in light emission

O[C@H](CS)[C@H](O)CS [DTT, dithiothreitol]
kinetics of light emission [3]: prolongs the light emission | reduction in the background signal generated by the assay buffer ([4]; after subtraction of the pre-read, FIG. 12B): more than 80% | reduction in the overall background signal ([4]; raw RLU after injection, FIG. 12A): more than 50% | light emission over time (% signal remaining compared to time zero) ([5]; 50 mM DTT in assay buffer, native secreted form, conditioned medium, FIG. 3): very rapid decline in light emission | light emission over time ([5]; varying DTT in assay buffer, up to 120 minutes, FIG. 5B): very rapid decline in light emission | signal in the lysate of cells expressing only Gaussia luciferase [6]: no signal was detected | true luciferase signal in flash reactions [7]: does not reduce the true luciferase signal | time for Gaussia luciferase signal to decay to background levels [8]: ≤ 15 min | light emission over time ([1]; varying DTT in assay buffer, FIG. 5C): very rapid decline in light emission | light emission over time (% signal remaining compared to time zero) ([2]; 50 mM DTT in assay buffer, modified non-secreted form, FIG. 3): very rapid decline in light emission | time for signal to drop to approximately background levels (~100 RLU) ([2]; DTT 50 mM to 500 mM, all concentrations, FIG. 2B): ≤ 10 min | rate of decay in luminescent signal versus concentration ([2]; DTT 50 mM to 500 mM, FIG. 2A): directly related to the concentration of DTT | light emission after addition during glow phase (% of light units at time zero) ([2]; DTT added 40 minutes after initiation of reaction, FIG. 7): rapid decline in light emission | light emission during the first few seconds after injection of the reducing agent ([2]; DTT added during glow phase, FIG. 7): lack of any significant decay in light emission | decay in luminescent signal over time compared with absence of reducing agent [2]: more rapid decay in luminescent signal | initial signal intensity ([2]; up to 50 mM DTT): does not cause any reduction in initial signal intensity | light emission over time ([2]; varying DTT in assay buffer, up to 120 minutes, FIG. 5A): very rapid decline in light emission | light emission over time [9]: very rapid decline in light emission

O=C(O)CCP(CCC(=O)O)CCC(=O)O [TCEP, tris(2-carboxyethyl)phosphine]
decay in luminescent signal over time compared with absence of reducing agent [2]: more rapid decay in luminescent signal | light emission over time [2, 13]: rapid decline in light emission

NCCS [cysteamine]
light emission over time [1, 12]: rapid decline in light emission | light emission over time [2, 13]: rapid decline in light emission

N[C@@H](CCC(=O)N[C@@H](CS)C(=O)NCC(=O)O)C(=O)O [glutathione]
baseline activity of the fresh buffers [10]: reduces the assay buffer activity | initial activity of assay buffer [11]: initial activity was reduced

O=S([O-])[O-].[Na+].[Na+] [sodium sulfite]
light emission over time [1, 12]: rapid decline in light emission

OCCS [β-mercaptoethanol]
decay in luminescent signal over time compared with absence of reducing agent [2]: more rapid decay in luminescent signal | light emission over time [2, 13]: rapid decline in light emission
